Laboratory results as given in the supplement of paper PMC10307832.

What was measured:
Assay in all cases: relative viability (nuclei count vs DMSO), 5 days (fraction); higher = more cells survive
201T = tested on: 201T
Summary of the method: (§1)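 The day after seeding in 1536-well plates, lung cancer cell lines were treated by pin tool with a single drug, or with a fixed anchor-drug dose together with five library-drug doses (not always all listed) in √10 steps. After 5 days, a combined fix-and-stain solution (final 0.05% Triton X-100, 1% formaldehyde, 1 ug/ml Hoechst) was added. Nuclei counted on 4× images gave relative viability as treated counts over vehicle counts, reported as the median of duplicate plates.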

A-427 = tested on: A-427
Summary of the method: as §1

COR-L23 = tested on: COR-L23
Summary of the method: as §1

H3255 = tested on: H3255
Summary of the method: as §1

HCC-44 = tested on: HCC-44
Summary of the method: as §1

LC-2-ad = tested on: LC-2-ad
Summary of the method: as §1

LCLC-103H = tested on: LCLC-103H
Summary of the method: as §1

LCLC-97TM1 = tested on: LCLC-97TM1
Summary of the method: as §1

LU99A = tested on: LU99A
Summary of the method: as §1

NCI-H1563 = tested on: NCI-H1563
Summary of the method: as §1

NCI-H1650 = tested on: NCI-H1650
Summary of the method: as §1

NCI-H2228 = tested on: NCI-H2228
Summary of the method: as §1

NCI-H2347 = tested on: NCI-H2347
Summary of the method: as §1

NCI-H23 = tested on: NCI-H23
Summary of the method: as §1

NCI-H460 = tested on: NCI-H460
Summary of the method: as §1

NCI-H596 = tested on: NCI-H596
Summary of the method: as §1

NCI-H727 = tested on: NCI-H727
Summary of the method: as §1

PC-14 = tested on: PC-14
Summary of the method: as §1

PC-3 [JPC-3] = tested on: PC-3 [JPC-3]
Summary of the method: as §1

SW 1573 = tested on: SW 1573
Summary of the method: as §1

SMILES: O=c1cc(-c2cccc3c2Sc2ccccc2S3)oc(N2CCOCC2)c1 + CC(C)C[C@H](NC(=O)[C@H](Cc1ccccc1)NC(=O)c1cnccn1)B(O)O [Bortezomib] (partner 0.002 µM)
- relative viability (201T; first compound 0.08 µM): 1.07
- relative viability (201T; first compound 0.253 µM): 1.15
- relative viability (201T; first compound 0.8 µM): 1.15
- relative viability (201T; first compound 2.53 µM): 1.02
- relative viability (201T; first compound 8 µM): 1.08
- relative viability (A-427; first compound 0.08 µM): 1.09
- relative viability (A-427; first compound 0.253 µM): 0.977
- relative viability (A-427; first compound 0.8 µM): 0.999
- relative viability (A-427; first compound 2.53 µM): 0.931
- relative viability (A-427; first compound 8 µM): 1.03
- relative viability (COR-L23; first compound 0.08 µM): 1.13
- relative viability (COR-L23; first compound 0.253 µM): 1.49
- relative viability (COR-L23; first compound 0.8 µM): 1.2
- relative viability (COR-L23; first compound 2.53 µM): 1
- relative viability (COR-L23; first compound 8 µM): 1.48
- relative viability (H3255; first compound 0.08 µM): 0.837
- relative viability (H3255; first compound 0.253 µM): 0.835
- relative viability (H3255; first compound 0.8 µM): 0.837
- relative viability (H3255; first compound 2.53 µM): 0.646
- relative viability (H3255; first compound 8 µM): 1.07
- relative viability (HCC-44; first compound 0.08 µM): 0.907
- relative viability (HCC-44; first compound 0.253 µM): 1.07
- relative viability (HCC-44; first compound 0.8 µM): 0.837
- relative viability (HCC-44; first compound 2.53 µM): 0.816
- relative viability (HCC-44; first compound 8 µM): 1.03
- relative viability (LC-2-ad; first compound 0.08 µM): 0.989
- relative viability (LC-2-ad; first compound 0.253 µM): 0.827
- relative viability (LC-2-ad; first compound 0.8 µM): 1.06
- relative viability (LC-2-ad; first compound 2.53 µM): 1.02
- relative viability (LC-2-ad; first compound 8 µM): 1.07
- relative viability (LCLC-103H; first compound 0.08 µM): 1.16
- relative viability (LCLC-103H; first compound 0.253 µM): 1.18
- relative viability (LCLC-103H; first compound 0.8 µM): 1.08
- relative viability (LCLC-103H; first compound 2.53 µM): 1.14
- relative viability (LCLC-103H; first compound 8 µM): 1.37
- relative viability (LCLC-97TM1; first compound 0.08 µM): 0.732
- relative viability (LCLC-97TM1; first compound 0.253 µM): 0.387
- relative viability (LCLC-97TM1; first compound 0.8 µM): 0.528
- relative viability (LCLC-97TM1; first compound 2.53 µM): 0.344
- relative viability (LCLC-97TM1; first compound 8 µM): 1.16
- relative viability (LU99A; first compound 0.08 µM): 1.18
- relative viability (LU99A; first compound 0.253 µM): 1.07
- relative viability (LU99A; first compound 0.8 µM): 1.5
- relative viability (LU99A; first compound 2.53 µM): 1.03
- relative viability (LU99A; first compound 8 µM): 1.3
- relative viability (NCI-H1563; first compound 0.08 µM): 0.773
- relative viability (NCI-H1563; first compound 0.253 µM): 0.857
- relative viability (NCI-H1563; first compound 0.8 µM): 0.767
- relative viability (NCI-H1563; first compound 2.53 µM): 0.92
- relative viability (NCI-H1563; first compound 8 µM): 0.83
- relative viability (NCI-H1650; first compound 0.08 µM): 0.212
- relative viability (NCI-H1650; first compound 0.253 µM): 0.168
- relative viability (NCI-H1650; first compound 0.8 µM): 0.189
- relative viability (NCI-H1650; first compound 2.53 µM): 0.16
- relative viability (NCI-H1650; first compound 8 µM): 0.184
- relative viability (NCI-H2228; first compound 0.08 µM): 0.965
- relative viability (NCI-H2228; first compound 0.253 µM): 1.16
- relative viability (NCI-H2228; first compound 0.8 µM): 1.19
- relative viability (NCI-H2228; first compound 2.53 µM): 0.982
- relative viability (NCI-H2228; first compound 8 µM): 1.23
- relative viability (NCI-H2347; first compound 0.08 µM): 0.947
- relative viability (NCI-H2347; first compound 0.253 µM): 1.17
- relative viability (NCI-H2347; first compound 0.8 µM): 1.09
- relative viability (NCI-H2347; first compound 2.53 µM): 0.902
- relative viability (NCI-H2347; first compound 8 µM): 1.73
- relative viability (NCI-H23; first compound 0.08 µM): 0.948
- relative viability (NCI-H23; first compound 0.253 µM): 1.16
- relative viability (NCI-H23; first compound 0.8 µM): 1.25
- relative viability (NCI-H23; first compound 2.53 µM): 0.914
- relative viability (NCI-H23; first compound 8 µM): 1.09
- relative viability (NCI-H460; first compound 0.08 µM): 1.36
- relative viability (NCI-H460; first compound 0.8 µM): 1.12
- relative viability (NCI-H460; first compound 2.53 µM): 1.02
- relative viability (NCI-H460; first compound 8 µM): 1.87
- relative viability (NCI-H596; first compound 0.08 µM): 0.985
- relative viability (NCI-H596; first compound 0.253 µM): 1.18
- relative viability (NCI-H596; first compound 0.8 µM): 0.959
- relative viability (NCI-H596; first compound 2.53 µM): 0.745
- relative viability (NCI-H596; first compound 8 µM): 1.14
- relative viability (NCI-H727; first compound 0.253 µM): 1.1
- relative viability (NCI-H727; first compound 2.53 µM): 0.66
- relative viability (NCI-H727; first compound 8 µM): 0.972
- relative viability (PC-14; first compound 0.08 µM): 1.08
- relative viability (PC-14; first compound 0.253 µM): 1.01
- relative viability (PC-14; first compound 0.8 µM): 0.962
- relative viability (PC-14; first compound 2.53 µM): 0.866
- relative viability (PC-14; first compound 8 µM): 0.882
- relative viability (PC-3 [JPC-3]; first compound 0.08 µM): 0.875
- relative viability (PC-3 [JPC-3]; first compound 0.253 µM): 0.801
- relative viability (PC-3 [JPC-3]; first compound 0.8 µM): 0.886
- relative viability (PC-3 [JPC-3]; first compound 2.53 µM): 0.818
- relative viability (PC-3 [JPC-3]; first compound 8 µM): 1.12
- relative viability (SW 1573; first compound 0.08 µM): 0.976
- relative viability (SW 1573; first compound 0.253 µM): 1.13
- relative viability (SW 1573; first compound 0.8 µM): 1.09
- relative viability (SW 1573; first compound 2.53 µM): 1.05
- relative viability (SW 1573; first compound 8 µM): 1.09
